Assay results reported in publication PMC7127491 (Bioorganic & Medicinal Chemistry, 2008).
Entries after “also recorded” stand apart in the source; their conditions may differ.

What was measured:
Assay type in all cases: cell-based
influenza A (H3N2) = assay: microbe, parasite or virus in culture; details: H3N2, MDCK, read-out: EC50 against influenza A (H3N2)
HIV-1 = assay: Anti-HIV-1 activity, virus-induced cytopathicity in CEM cells
HIV-2 = assay: Anti-HIV-2 activity, virus-induced cytopathicity in CEM cells
[1] = test system: normal diploid human fibroblasts (WI 38); assay: Antiproliferation MTT assay
[2] = test system: all evaluated tumour cell lines (L1210, Molt4/C8, CEM, HeLa, MCF-7, MiaPaCa-2, SW 620, Hep G2); assay: Cytostatic activity over the whole panel of evaluated cell lines; details: read-out: IC50 range on all the evaluated tumour cell lines

| SMILES | EC50 (influenza A (H3N2)) [µM] | inhibitory activity against HIV-1, in words (HIV-1) | inhibitory activity against HIV-2, in words (HIV-2) | cytotoxicity to human normal fibroblasts (WI 38), in words [1] | IC50 [2] [µM] |
| --- | --- | --- | --- | --- | --- |
| CCCCCCCCC#Cc1cn(C/C=C\CN2C(=O)c3ccccc3C2=O)c(=O)[nH]c1=O [Compound 2, (Z)-1-[4′-(N-Phthalimido)-2′-butenyl]-5-decynyluracil] | 2.5 to 4 |  |  |  |  |
| O=C1c2ccccc2C(=O)N1C/C=C\Cn1cc(C#CCCc2ccccc2)c(=O)[nH]c1=O [Compound 3, (Z)-1-[4′-(N-Phthalimido)-2′-butenyl]-5-(4″-phenylbutynyl)uracil] |  | marginal inhibitory activity; also recorded: slight activity | marginal inhibitory activity |  |  |
| O=C1c2ccccc2C(=O)N1C/C=C\Cn1cc(C#Cc2ccc(Br)cc2)c(=O)[nH]c1=O [Compound 4, (Z)-1-[4′-(N-Phthalimido)-2′-butenyl]-5-(p-bromophenylethynyl)uracil] |  | marginal inhibitory activity; also recorded: slight activity | marginal inhibitory activity |  |  |
| CCCCCc1ccc(C#Cc2cn(C/C=C\CN3C(=O)c4ccccc4C3=O)c(=O)[nH]c2=O)cc1 [Compound 7, (Z)-1-[4′-(N-Phthalimido)-2′-butenyl]-5-(p-pentylphenylethynyl)uracil] |  |  |  | no cytotoxicity |  |
| CCCCCc1ccc(C#Cc2cn(C/C=C/CN3C(=O)c4ccccc4C3=O)c(=O)[nH]c2=O)cc1 [Compound 14, (E)-1-[4′-(N-Phthalimido)-2′-butenyl]-5-(p-pentylphenylethynyl)uracil] |  | marginal inhibitory activity; also recorded: moderate activity | marginal inhibitory activity; also recorded: moderate activity | cytotoxic | 4.3 to 39 |
